Reference: the SangsterLogP compilation

SMILES | logP
COc1ccc(OC)c2sc(CO)cc12 | 2.11
OCc1cc2cc(Cl)ccc2s1 | 2.71
CN(C)N=Cc1sc2ccc(Cl)cc2c1Br | 4.54
O=Cc1sc2ccc(Cl)cc2c1Br | 3.89
O=Cc1cc2cc(Cl)ccc2s1 | 2.94
OCc1cc2ccccc2s1 | 2.08
COc1ccc(OC)c2sc(C=O)cc12 | 2.75
OCc1sc2ccc(Cl)cc2c1Br | 3.6
COC(=O)c1cc2cc(Cl)ccc2s1 | 3.81
COC(=O)c1cc2ccc([N+](=O)[O-])cc2s1 | 3.06
COC(=O)c1sc2c(OC)ccc(OC)c2c1N | 2.97
COC(=O)c1cc2ccccc2s1 | 3.21
CN(C)N=Cc1cc2cc(Cl)ccc2s1 | 4.18
